Reference: article PMC6478789, “A chemical toolbox for the study of bromodomains and epigenetic signaling” (Nature Communications, 2019)

Each compound was assayed against T1, PRMT9 (Homo sapiens, UniProt Q6P2P2) (assay: Methyl transferase scintillation proximity assay). Conditions: 10µM; average of two measurements.
T1 construct: purchased DiscoverX BROMOscan (bromodomains); SGC in-house methyltransferase panel
T1 sequence (Q6P2P2 1-845): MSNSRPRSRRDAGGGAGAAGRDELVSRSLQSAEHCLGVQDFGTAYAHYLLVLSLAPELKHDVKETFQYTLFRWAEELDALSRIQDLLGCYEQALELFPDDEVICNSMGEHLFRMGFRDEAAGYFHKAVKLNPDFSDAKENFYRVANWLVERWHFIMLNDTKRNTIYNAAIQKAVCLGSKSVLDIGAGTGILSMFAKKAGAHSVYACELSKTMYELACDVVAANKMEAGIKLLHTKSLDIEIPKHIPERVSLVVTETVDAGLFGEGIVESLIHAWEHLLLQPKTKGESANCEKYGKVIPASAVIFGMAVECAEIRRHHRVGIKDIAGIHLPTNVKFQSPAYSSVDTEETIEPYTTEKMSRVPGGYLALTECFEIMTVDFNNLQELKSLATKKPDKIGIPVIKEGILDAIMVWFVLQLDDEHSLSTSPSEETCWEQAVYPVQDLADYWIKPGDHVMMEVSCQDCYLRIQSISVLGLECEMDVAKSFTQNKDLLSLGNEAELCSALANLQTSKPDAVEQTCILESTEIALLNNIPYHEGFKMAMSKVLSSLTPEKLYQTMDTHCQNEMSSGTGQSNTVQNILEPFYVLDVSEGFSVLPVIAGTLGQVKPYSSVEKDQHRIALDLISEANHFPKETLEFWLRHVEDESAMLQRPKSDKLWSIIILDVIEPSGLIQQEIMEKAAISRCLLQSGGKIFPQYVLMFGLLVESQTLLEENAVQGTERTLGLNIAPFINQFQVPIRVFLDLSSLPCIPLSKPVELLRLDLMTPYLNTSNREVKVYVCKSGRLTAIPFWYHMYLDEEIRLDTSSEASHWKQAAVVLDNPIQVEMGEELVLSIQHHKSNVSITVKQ
Type: biochemical
Summary of the method: (§1)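 ^3H-SAM + biotinylated substrate, both ~apparent Km per enzyme. Quench: 7.5 M guanidine HCl; dilute in 20 mM Tris pH 8.0; FlashPlate capture 1 h; read CPM. No-compound = 100%, no-enzyme = 0% activity.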
With `COc1ccccc1C(=O)Nc1cc2c(cc1N1CCNC[C@H]1C)n(C)c(=O)n2C` [GSK6853] the “MTases Inhibition (%)” value was 12%.

Same assay, conditions: average of two measurements, read-out: MTases Inhibition (%)
`CN1C[C@H](Nc2cnn(C)c(=O)c2Br)C[C@H](c2ccccc2)C1` [GSK4027] was tested, and the inhibition at 10 µM was 8%. `COc1cc(Cl)c(C(=O)N[C@@H](CN[C@H]2CC[C@@H](N)CC2)Cc2ccc(C#N)cc2)cc1-c1ccc(CN[C@H](C)c2ccc(C)cc2)o1` [BAY-850] showed an inhibition at 10 µM of 15%. Compound `CN(C)CCCOc1ccc(-c2cc(NCCCn3cccn3)nc(S(C)(=O)=O)n2)cc1` [TP-238] has an inhibition at 10 µM of 7%. `Cc1nnc2c3ccccc3c(N[C@@H](C)[C@H](c3ccccc3)N(C)C)nn12` [L-Moses] gave an inhibition at 10 µM of 13%. Compound `Cc1c(NC(=O)c2cc(C(N)=O)nc3cc(F)ccc23)c(C(F)(F)F)nn1Cc1ccc(C#N)cc1` [BAY-876] has an inhibition at 10 µM of 12%. With `CO[C@H]1CNC[C@@H](OCC2CCC(F)(F)CC2)[C@@H]1Nc1ncc(-c2cncc(C)c2)c2cc(C)c(=O)[nH]c12` [GSK8814] the inhibition at 10 µM was 3%. Work on `Cc1c(NC(=O)c2cc(C(N)=O)nc3cc(F)ccc23)c(C(F)(F)F)nn1Cc1ccc(C(C)(C)C)cc1` [BAY-588] yielded an inhibition at 10 µM of 3%.

The compounds below were run against T2, NSD3 (Homo sapiens, UniProt Q9BZ95) (assay: Methyl transferase scintillation proximity assay). Conditions: 10µM; average of two measurements.
T2 construct: purchased DiscoverX BROMOscan (bromodomains); SGC in-house methyltransferase panel
T2 sequence (Q9BZ95 1-1437): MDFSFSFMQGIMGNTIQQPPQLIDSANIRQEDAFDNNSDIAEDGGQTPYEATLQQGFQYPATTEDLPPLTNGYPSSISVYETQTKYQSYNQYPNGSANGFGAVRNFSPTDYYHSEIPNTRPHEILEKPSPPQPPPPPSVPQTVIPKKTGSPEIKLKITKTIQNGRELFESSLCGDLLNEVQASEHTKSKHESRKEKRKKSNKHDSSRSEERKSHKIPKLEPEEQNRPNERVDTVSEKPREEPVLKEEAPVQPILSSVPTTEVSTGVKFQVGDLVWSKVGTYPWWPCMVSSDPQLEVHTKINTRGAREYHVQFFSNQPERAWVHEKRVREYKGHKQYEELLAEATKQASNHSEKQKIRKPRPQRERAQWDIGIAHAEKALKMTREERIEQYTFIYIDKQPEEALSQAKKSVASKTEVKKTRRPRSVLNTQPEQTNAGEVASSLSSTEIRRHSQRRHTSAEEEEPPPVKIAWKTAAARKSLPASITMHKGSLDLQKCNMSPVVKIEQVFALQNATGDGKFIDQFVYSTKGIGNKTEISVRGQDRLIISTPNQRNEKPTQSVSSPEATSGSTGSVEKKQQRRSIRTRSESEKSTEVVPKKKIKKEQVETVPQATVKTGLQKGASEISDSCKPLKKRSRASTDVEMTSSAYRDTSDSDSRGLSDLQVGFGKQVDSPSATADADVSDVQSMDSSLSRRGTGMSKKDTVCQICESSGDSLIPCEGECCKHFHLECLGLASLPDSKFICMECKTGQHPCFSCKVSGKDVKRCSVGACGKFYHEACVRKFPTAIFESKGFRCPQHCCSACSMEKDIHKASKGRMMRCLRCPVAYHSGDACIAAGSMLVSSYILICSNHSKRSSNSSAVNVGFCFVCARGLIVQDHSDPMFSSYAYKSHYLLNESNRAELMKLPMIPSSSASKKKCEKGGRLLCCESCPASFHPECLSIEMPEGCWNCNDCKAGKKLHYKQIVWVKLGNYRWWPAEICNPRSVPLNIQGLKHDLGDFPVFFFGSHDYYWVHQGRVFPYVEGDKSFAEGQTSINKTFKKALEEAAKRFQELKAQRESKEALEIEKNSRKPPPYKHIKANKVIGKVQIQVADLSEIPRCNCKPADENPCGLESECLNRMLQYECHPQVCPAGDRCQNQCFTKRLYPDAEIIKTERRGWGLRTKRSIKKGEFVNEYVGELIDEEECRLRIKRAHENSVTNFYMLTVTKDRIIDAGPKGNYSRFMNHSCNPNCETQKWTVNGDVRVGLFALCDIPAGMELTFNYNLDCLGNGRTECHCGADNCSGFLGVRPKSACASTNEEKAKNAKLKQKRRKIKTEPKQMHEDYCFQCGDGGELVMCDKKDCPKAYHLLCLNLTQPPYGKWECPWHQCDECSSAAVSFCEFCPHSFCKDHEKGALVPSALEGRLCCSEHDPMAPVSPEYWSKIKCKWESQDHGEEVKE
Type: biochemical
Summary of the method: as §1
`COc1ccccc1C(=O)Nc1cc2c(cc1N1CCNC[C@H]1C)n(C)c(=O)n2C` [GSK6853] was tested, and the “MTases Inhibition (%)” value was 7%.

Same assay, conditions: average of two measurements, read-out: MTases Inhibition (%)
`CN1C[C@H](Nc2cnn(C)c(=O)c2Br)C[C@H](c2ccccc2)C1` [GSK4027] was tested, and the inhibition at 10 µM was 10%. Compound `COc1cc(Cl)c(C(=O)N[C@@H](CN[C@H]2CC[C@@H](N)CC2)Cc2ccc(C#N)cc2)cc1-c1ccc(CN[C@H](C)c2ccc(C)cc2)o1` [BAY-850] has an inhibition at 10 µM of 14%. `CN(C)CCCOc1ccc(-c2cc(NCCCn3cccn3)nc(S(C)(=O)=O)n2)cc1` [TP-238] gave an inhibition at 10 µM of 15%. `Cc1nnc2c3ccccc3c(N[C@@H](C)[C@H](c3ccccc3)N(C)C)nn12` [L-Moses] showed an inhibition at 10 µM of 5%. Compound `Cc1c(NC(=O)c2cc(C(N)=O)nc3cc(F)ccc23)c(C(F)(F)F)nn1Cc1ccc(C#N)cc1` [BAY-876] has an inhibition at 10 µM of 3%. With `CO[C@H]1CNC[C@@H](OCC2CCC(F)(F)CC2)[C@@H]1Nc1ncc(-c2cncc(C)c2)c2cc(C)c(=O)[nH]c12` [GSK8814] the inhibition at 10 µM was 13%. For `Cc1c(NC(=O)c2cc(C(N)=O)nc3cc(F)ccc23)c(C(F)(F)F)nn1Cc1ccc(C(C)(C)C)cc1` [BAY-588], the inhibition at 10 µM was -2%.

What follows are compounds tested against T3, DOT1L (Homo sapiens, UniProt Q8TEK3) (assay: Methyl transferase scintillation proximity assay). Conditions: 10µM; average of two measurements.
T3 construct: purchased DiscoverX BROMOscan (bromodomains); SGC in-house methyltransferase panel
T3 sequence (Q8TEK3 whole entry): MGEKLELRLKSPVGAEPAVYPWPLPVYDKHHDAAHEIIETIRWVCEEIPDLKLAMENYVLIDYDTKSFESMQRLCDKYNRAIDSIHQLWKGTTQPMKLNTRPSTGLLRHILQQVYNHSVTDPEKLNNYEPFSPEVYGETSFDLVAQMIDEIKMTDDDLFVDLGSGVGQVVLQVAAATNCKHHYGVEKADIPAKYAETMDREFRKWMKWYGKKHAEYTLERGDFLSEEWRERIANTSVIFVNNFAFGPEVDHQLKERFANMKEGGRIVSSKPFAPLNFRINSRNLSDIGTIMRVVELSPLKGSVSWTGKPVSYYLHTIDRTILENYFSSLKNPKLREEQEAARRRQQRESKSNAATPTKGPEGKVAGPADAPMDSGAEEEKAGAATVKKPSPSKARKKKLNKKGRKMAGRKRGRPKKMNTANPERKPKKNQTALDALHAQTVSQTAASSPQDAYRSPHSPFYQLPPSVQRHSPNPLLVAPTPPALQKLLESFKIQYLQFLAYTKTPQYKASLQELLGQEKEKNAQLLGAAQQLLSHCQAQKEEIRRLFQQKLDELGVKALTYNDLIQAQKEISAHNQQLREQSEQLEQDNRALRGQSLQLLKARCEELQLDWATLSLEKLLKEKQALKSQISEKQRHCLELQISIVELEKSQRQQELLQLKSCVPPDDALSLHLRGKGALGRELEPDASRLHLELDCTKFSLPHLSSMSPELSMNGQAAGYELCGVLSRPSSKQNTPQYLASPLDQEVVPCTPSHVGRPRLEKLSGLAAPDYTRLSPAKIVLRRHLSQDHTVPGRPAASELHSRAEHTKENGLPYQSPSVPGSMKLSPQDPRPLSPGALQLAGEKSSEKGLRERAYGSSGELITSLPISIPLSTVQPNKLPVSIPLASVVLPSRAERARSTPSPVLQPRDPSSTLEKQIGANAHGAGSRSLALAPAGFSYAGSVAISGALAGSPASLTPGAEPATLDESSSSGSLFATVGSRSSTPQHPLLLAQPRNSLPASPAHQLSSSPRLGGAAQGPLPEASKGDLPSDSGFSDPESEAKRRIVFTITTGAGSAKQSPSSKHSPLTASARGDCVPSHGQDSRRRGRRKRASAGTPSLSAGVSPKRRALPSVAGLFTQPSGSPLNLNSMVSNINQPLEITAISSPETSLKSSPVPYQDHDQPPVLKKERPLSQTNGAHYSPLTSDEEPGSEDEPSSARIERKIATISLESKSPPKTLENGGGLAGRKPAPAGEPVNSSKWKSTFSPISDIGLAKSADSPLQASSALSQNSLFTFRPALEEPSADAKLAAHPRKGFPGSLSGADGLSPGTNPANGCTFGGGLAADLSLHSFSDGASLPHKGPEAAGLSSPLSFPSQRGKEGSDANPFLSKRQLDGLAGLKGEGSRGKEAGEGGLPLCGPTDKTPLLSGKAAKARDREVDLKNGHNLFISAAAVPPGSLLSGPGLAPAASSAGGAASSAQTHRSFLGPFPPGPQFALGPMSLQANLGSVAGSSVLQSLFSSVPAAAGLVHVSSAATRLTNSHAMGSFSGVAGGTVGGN
Type: biochemical
Summary of the method: as §1
For `COc1ccccc1C(=O)Nc1cc2c(cc1N1CCNC[C@H]1C)n(C)c(=O)n2C` [GSK6853], the “MTases Inhibition (%)” value was 10%.

Same assay, conditions: average of two measurements, read-out: MTases Inhibition (%)
`CN1C[C@H](Nc2cnn(C)c(=O)c2Br)C[C@H](c2ccccc2)C1` [GSK4027] showed an inhibition at 10 µM of -2%. `COc1cc(Cl)c(C(=O)N[C@@H](CN[C@H]2CC[C@@H](N)CC2)Cc2ccc(C#N)cc2)cc1-c1ccc(CN[C@H](C)c2ccc(C)cc2)o1` [BAY-850] was tested, and the inhibition at 10 µM was 3%. Compound `CN(C)CCCOc1ccc(-c2cc(NCCCn3cccn3)nc(S(C)(=O)=O)n2)cc1` [TP-238] has an inhibition at 10 µM of 6%. `Cc1nnc2c3ccccc3c(N[C@@H](C)[C@H](c3ccccc3)N(C)C)nn12` [L-Moses] gave an inhibition at 10 µM of 1%. Work on `Cc1c(NC(=O)c2cc(C(N)=O)nc3cc(F)ccc23)c(C(F)(F)F)nn1Cc1ccc(C#N)cc1` [BAY-876] yielded an inhibition at 10 µM of -6%. `CO[C@H]1CNC[C@@H](OCC2CCC(F)(F)CC2)[C@@H]1Nc1ncc(-c2cncc(C)c2)c2cc(C)c(=O)[nH]c12` [GSK8814] gave an inhibition at 10 µM of 5%. For `Cc1c(NC(=O)c2cc(C(N)=O)nc3cc(F)ccc23)c(C(F)(F)F)nn1Cc1ccc(C(C)(C)C)cc1` [BAY-588], the inhibition at 10 µM was 3%.

The compounds below were run against T4, SUV39H1 (Homo sapiens, UniProt O43463) (assay: Methyl transferase scintillation proximity assay). Conditions: 10µM; average of two measurements.
T4 construct: purchased DiscoverX BROMOscan (bromodomains); SGC in-house methyltransferase panel
T4 sequence (O43463 1-412): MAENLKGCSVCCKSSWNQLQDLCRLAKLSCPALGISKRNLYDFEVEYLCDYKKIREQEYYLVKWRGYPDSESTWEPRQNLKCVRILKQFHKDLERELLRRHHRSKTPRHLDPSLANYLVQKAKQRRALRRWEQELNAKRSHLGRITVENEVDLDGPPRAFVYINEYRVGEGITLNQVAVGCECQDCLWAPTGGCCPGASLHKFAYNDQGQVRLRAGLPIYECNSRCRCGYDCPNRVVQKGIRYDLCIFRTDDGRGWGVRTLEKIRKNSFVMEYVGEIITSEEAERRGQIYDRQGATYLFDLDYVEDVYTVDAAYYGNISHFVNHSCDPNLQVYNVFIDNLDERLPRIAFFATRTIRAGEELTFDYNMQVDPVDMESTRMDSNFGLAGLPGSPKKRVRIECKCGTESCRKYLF
Type: biochemical
Summary of the method: as §1
With `COc1ccccc1C(=O)Nc1cc2c(cc1N1CCNC[C@H]1C)n(C)c(=O)n2C` [GSK6853] the “MTases Inhibition (%)” value was -3%.

Same assay, conditions: average of two measurements, read-out: MTases Inhibition (%)
`CN1C[C@H](Nc2cnn(C)c(=O)c2Br)C[C@H](c2ccccc2)C1` [GSK4027] showed an inhibition at 10 µM of -3%. Work on `COc1cc(Cl)c(C(=O)N[C@@H](CN[C@H]2CC[C@@H](N)CC2)Cc2ccc(C#N)cc2)cc1-c1ccc(CN[C@H](C)c2ccc(C)cc2)o1` [BAY-850] yielded an inhibition at 10 µM of 5%. In the case of `CN(C)CCCOc1ccc(-c2cc(NCCCn3cccn3)nc(S(C)(=O)=O)n2)cc1` [TP-238], the inhibition at 10 µM is reported as -1%. Work on `Cc1nnc2c3ccccc3c(N[C@@H](C)[C@H](c3ccccc3)N(C)C)nn12` [L-Moses] yielded an inhibition at 10 µM of -2%. `Cc1c(NC(=O)c2cc(C(N)=O)nc3cc(F)ccc23)c(C(F)(F)F)nn1Cc1ccc(C#N)cc1` [BAY-876] showed an inhibition at 10 µM of 16%. Work on `CO[C@H]1CNC[C@@H](OCC2CCC(F)(F)CC2)[C@@H]1Nc1ncc(-c2cncc(C)c2)c2cc(C)c(=O)[nH]c12` [GSK8814] yielded an inhibition at 10 µM of -2%. `Cc1c(NC(=O)c2cc(C(N)=O)nc3cc(F)ccc23)c(C(F)(F)F)nn1Cc1ccc(C(C)(C)C)cc1` [BAY-588] showed an inhibition at 10 µM of 12%.
